From patent US10144715B2, “Piperazine derivatives as liver X receptor modulators” (priority 2014, dated 2018)
Read-outs that look alike come from different tables or passages of the source.

Tests used:
[1] = target: Gal4 DNA binding domain fused to the LBD of LXRα in HEK293 cells (Homo sapiens (Human), UniProt Q13133); assay: LXR luciferase transcriptional reporter gene assay, agonist mode, LXRα; assay type: cell-based
[2] = target: Gal4 DNA binding domain fused to the LBD of LXRβ in HEK293 cells (Homo sapiens (Human), UniProt P55055); assay: cell-based
Chain of Gal4 DNA binding domain fused to the LBD of LXRβ in HEK293 cells (P55055 222-460 limits assumed): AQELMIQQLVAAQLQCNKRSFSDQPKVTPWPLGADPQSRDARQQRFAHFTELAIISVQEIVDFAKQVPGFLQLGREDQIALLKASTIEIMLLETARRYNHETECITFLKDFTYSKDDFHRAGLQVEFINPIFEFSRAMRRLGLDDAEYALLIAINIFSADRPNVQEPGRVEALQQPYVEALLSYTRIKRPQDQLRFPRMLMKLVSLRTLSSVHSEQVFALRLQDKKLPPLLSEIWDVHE

LXR α LBD protein = LXR α LBD protein (Homo sapiens (Human), UniProt Q13133); assay: Human LXRα coactivator recruitment FRET assay, agonist mode; assay type: biochemical
Chain of LXR α LBD protein (Q13133 209-447): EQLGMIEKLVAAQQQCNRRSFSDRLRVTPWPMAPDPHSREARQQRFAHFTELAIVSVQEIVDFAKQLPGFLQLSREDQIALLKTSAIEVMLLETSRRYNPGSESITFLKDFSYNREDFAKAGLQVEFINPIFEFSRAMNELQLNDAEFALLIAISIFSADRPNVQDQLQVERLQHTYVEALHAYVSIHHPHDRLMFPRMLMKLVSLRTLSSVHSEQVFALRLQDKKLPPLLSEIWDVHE
Procedure, shortened: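 Time-resolved FRET (delay 100 µs, window 200 µs) after 2 h rt incubation of compound with 10 nM (2×) GST-tagged LXRα or LXRβ LBD plus 200 nM fluorescein-SRC2-3 and 20 nM Tb-anti-GST (4×). Percent control vs concentration fit to four-parameter model; EC50 at inflection.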

LXR β LBD protein [3] = target: T1, LXR β LBD protein (Homo sapiens (Human), UniProt P55055); assay: biochemical; assay type: biochemical
Experimental: Two μL of the DMSO solutions were transferred to the plate and 38 μL of 10 nM LXRα-LBD or LXRβ-LBD (2×) were added immediately to the wells. The plate was shaken for 5 min at rt on an orbital micro shaker (DPC MicroMix® 5), after which 40 μL of 200 nM fluorescein-SRC2-3 peptide and 20 nM Terbium-anti-GST-antibody (Cat# PV3550, Life Technologies, Grand Island, N.Y.) solution (4×) were added to all. The plate was sealed and shaken for 2 min at rt, and incubated at rt for 2 h without agitation. […] The delay and window times were set at 100 and 200 microseconds, respectively. […] The percent control vs. compound concentration data were fit into a four-parameter model, and EC50 values were calculated from the fit as the concentrations corresponding to the inflection points on the concentration-response curves.
Target sequence in this assay (P55055 222-460): as the sequence (P55055 222-460 limits assumed) above

LXR β LBD protein [4] = target: T1, LXR β LBD protein; assay: biochemical; assay type: binding; conditions: read-out: LXRβ Binding Ki
Target sequence in this assay (P55055 222-460 limits assumed): as above

[5] = Biological Test Example 3, agonist mode
[6] = agonist mode, read-out: FRET LXRβ EC50
[7] = agonist mode, read-out: Cell LXRα EC50
[8] = agonist mode, read-out: Cell LXRβ EC50

Chain of Gal4 DNA binding domain fused to the LBD of LXRα in HEK293 cells (Q13133 209-447): as the sequence (Q13133 209-447) above

## CS(=O)(=O)c1cccc(N2CCN(C[C@@H]3CCN(CC(F)(F)F)C3)[C@H](c3ccccc3)C2)c1 (single isomer, unassigned) [48-62]
[1]; Biological Test Example 2, agonist mode, read-out: Cell LXRα EC50
  EC50: > 20 µM
[2]
  EC50: 4.68 µM
[2]; Biological Test Example 2, agonist mode
  Cell LXRβ efficacy: 4682 (8) %
LXR α LBD protein; [5]
  EC50: 9.98 µM
  FRET LXRα efficacy: 39%
LXR β LBD protein [3]
  EC50: 2.1 µM

## CS(=O)(=O)c1cc(N2CCN(C[C@H]3CC[C@H](C(F)(F)F)CC3)[C@H](c3ccccc3)C2)ccc1C#N (single isomer, unassigned) [50-3]
[1]; read-out: Cell LXRα EC50
  EC50: > 20 µM
[2]; Biological Test Example 2, agonist mode, read-out: Cell LXRβ EC50
  EC50: > 20 µM
LXR α LBD protein; [5]
  EC50: 12.9 µM
  FRET LXRα efficacy: 71%
LXR β LBD protein [3]; [5]
  FRET LXRβ efficacy: 52%
LXR β LBD protein [3]; Biological Test Example 3, agonist mode, read-out: FRET LXRβ EC50
  EC50: 1.66 µM

## CC(C)[C@@H]1CN(c2ccc(F)c(S(C)(=O)=O)c2)CCN1C(=O)OC(C)(C)C [2-1, tert-butyl (R)-4-(4-fluoro-3-(methylsulfonyl)phenyl)-2-isopropylpiperazine-1-carboxylate]
LXR β LBD protein [4]
  Ki: 0.209 µM
[1]
  Cell LXRα efficacy: 5252 (61) %
[1]; read-out: Cell LXRα EC50
  EC50: 5.25 µM
[2]
  EC50: 0.684 µM
[2]; agonist mode
  Cell LXRβ efficacy: 684 (36) %
LXR α LBD protein; agonist mode
  EC50: 0.901 µM
  FRET LXRα efficacy: 48%
LXR β LBD protein [3]; agonist mode
  FRET LXRβ efficacy: 74%
LXR β LBD protein [3]; [6]
  EC50: 0.056 µM

## CC(C)(O)c1ccc(CN2CCN(c3cccc(S(C)(=O)=O)c3)C[C@H]2c2ccccc2)cc1 [10-11, (R)-2-(4-((4-(3-(methylsulfonyl)phenyl)-2-phenylpiperazin-1-yl)methyl)phenyl)propan-2-ol]
[1]; read-out: Cell LXRα EC50
  EC50: > 20 µM
[2]
  EC50: > 20 µM
LXR α LBD protein; agonist mode
  EC50: > 50 µM
LXR β LBD protein [3]; read-out: FRET LXRβ EC50
  EC50: > 50 µM

## CS(=O)(=O)c1cccc(N2CCN(Cc3ccc(OC(F)F)cc3)[C@H](c3ccccc3)C2)c1 [46-10, (R)-1-(4-(difluoromethoxy)benzyl)-4-(3-(methylsulfonyl)phenyl)-2-phenylpiperazine]
[1]
  EC50: > 20 µM
[2]
  EC50: > 20 µM
LXR α LBD protein
  FRET LXRα efficacy: 40680 (55) %
LXR α LBD protein; agonist mode
  EC50: 40.7 µM
LXR β LBD protein [3]
  FRET LXRβ efficacy: 24999 (94) %
LXR β LBD protein [3]; read-out: FRET LXRβ EC50
  EC50: 25 µM

## C[C@@]1(c2ccccc2)CN(c2cccc(S(C)(=O)=O)c2)CCN1Cc1ccc(C(F)(F)F)cc1 [46-20, (R)-2-methyl-4-(3-(methylsulfonyl)phenyl)-2-phenyl-1-(4-(trifluoromethyl)benzyl)piperazine]
[1]; [7]
  EC50: > 20 µM
[2]
  EC50: > 20 µM
LXR α LBD protein; agonist mode
  EC50: > 50 µM
LXR β LBD protein [3]; read-out: FRET LXRβ EC50
  EC50: > 50 µM

## CS(=O)(=O)c1cccc(N2CCN(C[C@H]3CC[C@@H](C(F)(F)F)CC3)[C@@H](c3ccc(F)cc3)C2)c1 [Cpd No 48-43, (S)-2-(4-fluorophenyl)-4-(3-(methylsulfonyl)phenyl)-1-(((1s,4R)-4-(trifluoromethyl)cyclohexyl)methyl)piperazine]
LXR β LBD protein [4]
  Ki: 0.015 µM
[1]
  Cell LXRα efficacy: 240 (54) %
[1]; [7]
  EC50: 0.24 µM
[2]
  Cell LXRβ efficacy: 47 (32) %
  EC50: 0.047 µM
LXR α LBD protein; agonist mode
  EC50: 0.207 µM
  FRET LXRα efficacy: 48%
LXR β LBD protein [3]
  FRET LXRβ efficacy: 27 (43) %
LXR β LBD protein [3]; read-out: FRET LXRβ EC50
  EC50: 0.027 µM

## benzyl 4-(3-(methylsulfonyl)phenyl)-2-phenylpiperazine-1-carboxylate [1-14]
[1]; read-out: Cell LXRα EC50
  EC50: > 20 µM
[2]; [8]
  EC50: > 20 µM
LXR α LBD protein; agonist mode
  EC50: 1.54 µM
  FRET LXRα efficacy: 27%
LXR β LBD protein [3]; agonist mode
  FRET LXRβ efficacy: 25%

## tert-butyl 2-(2-bromophenyl)-4-(3-(methylsulfonyl)phenyl)piperazine-1-carboxylate [1-9]
[1]; read-out: Cell LXRα EC50
  EC50: > 20 µM
[2]; [8]
  EC50: > 20 µM
LXR α LBD protein; agonist mode
  EC50: > 50 µM
LXR β LBD protein [3]; agonist mode
  FRET LXRβ efficacy: 32%
LXR β LBD protein [3]; [6]
  EC50: 0.564 µM

## tert-butyl 2-cyclohexyl-4-(3-(methylsulfonyl)phenyl)piperazine-1-carboxylate [1-11]
[1]
  Cell LXRα efficacy: 16278 (16) %
[1]; read-out: Cell LXRα EC50
  EC50: 16.3 µM
[2]; agonist mode
  Cell LXRβ efficacy: 2%
[2]; [8]
  EC50: 15.7 µM
LXR α LBD protein; agonist mode
  EC50: 19.1 µM
  FRET LXRα efficacy: 27%
LXR β LBD protein [3]; agonist mode
  FRET LXRβ efficacy: 25%
LXR β LBD protein [3]; [6]
  EC50: 0.34 µM

## tert-butyl 2-methyl-4-(3-(methylsulfonyl)phenyl)-2-phenylpiperazine-1-carboxylate [1-10]
[1]; read-out: Cell LXRα EC50
  EC50: > 20 µM
[2]; [8]
  EC50: > 20 µM
LXR α LBD protein; agonist mode
  EC50: 3.53 µM
  FRET LXRα efficacy: 28%
LXR β LBD protein [3]; agonist mode
  FRET LXRβ efficacy: 31%
LXR β LBD protein [3]; [6]
  EC50: 0.5 µM
